Here are results for 24 compounds from patent US20210002262A1, “CYANOPYRROLIDINES AS USP30 INHIBITORS AND FIBROSIS TREATMENT” (MISSION THERAPEUTICS LIMITED, priority 2018, published 2021).

“Also recorded” adds a separate entry of the source.

One series concerns the target T1, USP30 (Homo sapiens, UniProt Q70CQ3).
T1 sequence (Q70CQ3 1-517): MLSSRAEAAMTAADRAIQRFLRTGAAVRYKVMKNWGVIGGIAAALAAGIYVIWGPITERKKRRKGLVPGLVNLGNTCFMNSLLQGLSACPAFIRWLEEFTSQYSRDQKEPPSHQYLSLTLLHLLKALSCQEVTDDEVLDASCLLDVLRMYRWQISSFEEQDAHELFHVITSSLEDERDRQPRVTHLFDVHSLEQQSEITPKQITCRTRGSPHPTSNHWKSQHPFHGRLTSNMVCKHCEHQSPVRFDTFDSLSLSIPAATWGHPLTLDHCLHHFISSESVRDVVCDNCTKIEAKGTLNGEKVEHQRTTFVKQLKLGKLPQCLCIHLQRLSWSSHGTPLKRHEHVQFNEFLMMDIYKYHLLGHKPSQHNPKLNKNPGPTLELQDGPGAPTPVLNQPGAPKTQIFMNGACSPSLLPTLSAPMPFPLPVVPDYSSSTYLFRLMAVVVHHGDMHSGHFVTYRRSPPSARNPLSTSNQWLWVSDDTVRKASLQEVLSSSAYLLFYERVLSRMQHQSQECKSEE
Nature of the series: USP30 biochemical IC50 assay.
Conditions: not given
The method, then: Dilution plates were prepared at 21 times the final concentration (2100 μM for a final concentration of 100 μM) in 50% DMSO in a 96-well polypropylene V-bottom plate (Greiner #651201). A typical 8-point dilution series would be 100, 30, 10, 3, 1, 0.3, 0.1, 0.03 μM final. Reactions were performed in duplicate in black 384 well plates (small volume, Greiner 784076) in a final reaction volume of 21 μl. Either 1 μl of 50% DMSO or diluted compound was added to the plate. USP30 was diluted in reaction buffer (40 mM Tris, pH 7.5, 0.005% Tween 20, 0.5 mg/ml BSA, 5 mM beta-mercaptoethanol) to the equivalent of 0.05 μl/well and 10 μl of diluted USP30 was added to the compound. Enzyme and compound were incubated for 30 min at room temp. Reactions were initiated by the addition of 50 nM of TAMRA labelled peptide linked to ubiquitin via an iso-peptide bond as fluorescence polarisation substrate. Reactions were read immediately after addition of substrate and following a 2-hour incubation at room temperature. Readings were performed on a Pherastar Plus (BMG Labtech). λ Excitation 540 nm; λ Emission 590 nm.
Compound `C[C@@H]1C(CNC(=O)c2ncn(-c3cccc(C#N)c3)n2)CCN1C#N` (mixture of isomers) [Example 4, N-(((2R,3R)-1-cyano-2-methylpyrrolidin-3-yl)methyl)-1-(3-cyanophenyl)-1H-1,2,4-triazole-3-carboxamide and N-(((2R,3S)-1-cyano-2-methylpyrrolidin-3-yl)methyl)-1-(3-cyanophenyl)-1H-1,2,4-triazole-3-carboxamide] showed an IC50 of 0.01 to 0.1 µM. On the same count and under the same terms, to `N#CN1CCC(CNC(=O)c2ncn(-c3ccccc3)n2)C1` (stereo not shown) [Example 3, N-((1-cyanopyrrolidin-3-yl)methyl)-1-phenyl-1H-1,2,4-triazole-3-carboxamide] belongs 0.1 to 1 µM; to `N#CN1CC[C@H](CNC(=O)c2cn(-c3cccc(Cl)c3)nn2)C1` [Example 6, (R)-1-(3-chlorophenyl)-N-((1-cyanopyrrolidin-3-yl)methyl)-1H-1,2,3-triazole-4-carboxamide], 0.1 to 1 µM. Same read-out and setting: to `N#CN1CC[C@H](CNC(=O)c2cnn(-c3cccc(Cl)c3)n2)C1` [Example 7, (R)-2-(3-chlorophenyl)-N-((1-cyanopyrrolidin-3-yl)methyl)-2H-1,2,3-triazole-4-carboxamide] belongs under 0.01 µM.

Staying with this series, now noted: Examples of WO 2017/103614.
Turning to `N#CN1CC[C@H](CNc2ncc(-c3ccccc3)s2)C1` [Example 9, (R)-3-(((5-phenylthiazol-2-yl)amino)methyl)pyrrolidine-1-carbonitrile], the IC50 is 0.01 to 0.1 µM. The same measure, in the same setting: in the case of `N#CN1CCC(CNC(=O)c2cnc(-c3ccccc3)o2)C1` (stereo not shown) [Example 20, N-((1-cyanopyrrolidin-3-yl)methyl)-2-phenyloxazole-5-carboxamide] it was 0.1 to 1 µM.

Take `N#CN1CCC(CNC(=O)c2cc(-c3ccccc3)no2)C1` (stereo not shown) [Example 21, N-((1-cyanopyrrolidin-3-yl)methyl)-3-phenylisoxazole-5-carboxamide]: the half-inhibitory concentration (IC50) was in the range of 0.1 to 1 µM.

With `N#CN1CCC(CNC(=O)c2cc(-c3ccccc3)[nH]n2)C1` (stereo not shown) [Example 22, N-((1-cyanopyrrolidin-3-yl)methyl)-5-phenyl-1H-pyrazole-3-carboxamide], the IC50 was 0.1 to 1 µM.

The compound `N#CN1CCC(CNC(=O)c2csc(-c3ccccc3)n2)C1` (stereo not shown) [Example 26, N-((1-cyanopyrrolidin-3-yl)methyl)-2-phenylthiazole-4-carboxamide] returned an IC50 of 0.1 to 1 µM. `N#CN1CCC(CNC(=O)c2cc(-c3ccccc3F)n[nH]2)C1` (stereo not shown) [Example 31, N-((1-cyanopyrrolidin-3-yl)methyl)-3-(2-fluorophenyl)-1H-pyrazole-5-carboxamide] showed an IC50 of 0.1 to 1 µM. Still for that read-out and setting: to `N#CN1CCC(CNC(=O)c2ncc(-c3ccccc3)o2)C1` (stereo not shown) [Example 38, N-((1-cyanopyrrolidin-3-yl)methyl)-5-phenyloxazole-2-carboxamide] belongs 0.1 to 1 µM; to `N#CN1CC[C@H](CNC(=O)c2cc(-c3cccc(Cl)c3)no2)C1` [Example 55, (R)-3-(3-chlorophenyl)-N-((1-cyanopyrrolidin-3-yl)methyl)isoxazole-5-carboxamide], 0.01 to 0.1 µM; to `N#CN1CC[C@H](CNC(=O)c2cc(-c3ccccc3)on2)C1` [Example 58, (R)-N-((1-cyanopyrrolidin-3-yl)methyl)-5-phenylisoxazole-3-carboxamide], 0.1 to 1 µM. Still for that read-out and setting: to `N#CN1CC[C@H](CNC(=O)c2nc(-c3ccccc3)cs2)C1` [Example 62, (R)-N-((1-cyanopyrrolidin-3-yl)methyl)-4-phenylthiazole-2-carboxamide] belongs 0.1 to 1 µM; to `N#CN1CC[C@H](CNC(=O)c2ccn(-c3ccccc3)n2)C1` [Example 63, (R)-N-((1-cyanopyrrolidin-3-yl)methyl)-1-phenyl-1H-pyrazole-3-carboxamide], 0.1 to 1 µM. Still for that read-out and setting: in the case of `N#CN1CC[C@H](CNC(=O)c2cnc(-c3ccccc3)[nH]2)C1` [Example 64, (R)-N-((1-cyanopyrrolidin-3-yl)methyl)-2-phenyl-1H-imidazole-5-carboxamide] it was 0.1 to 1 µM. Consider `N#CN1CC[C@H](CNC(=O)c2cc(-c3ccccc3Cl)no2)C1` [Example 66, (R)-3-(2-chlorophenyl)-N-((1-cyanopyrrolidin-3-yl)methyl)isoxazole-5-carboxamide], for which the IC50 lay in the range of 0.1 to 1 µM. Still for that read-out and setting: to `N#CN1CC[C@H](CNC(=O)c2cc(-c3ccc(Cl)cc3)no2)C1` [Example 67, (R)-3-(4-chlorophenyl)-N-((1-cyanopyrrolidin-3-yl)methyl)isoxazole-5-carboxamide] belongs 0.1 to 1 µM; to `N#Cc1cccc(-c2nnc(C(=O)NC[C@@H]3CCN(C#N)C3)o2)c1` [Example 69, (S)-5-(3-cyanophenyl)-N-((1-cyanopyrrolidin-3-yl)methyl)-1,3,4-oxadiazole-2-carboxamide], 0.01 to 0.1 µM. `N#Cc1cccc(-n2cnc(C(=O)NC[C@H]3CCN(C#N)C3)c2)c1` [Example 71, (R)-1-(3-cyanophenyl)-N-((1-cyanopyrrolidin-3-yl)methyl)-1H-imidazole-4-carboxamide]: the IC50 is 0.01 to 0.1 µM. Still for that read-out and setting: in the case of `N#Cc1ccc(-n2cnc(C(=O)NC[C@H]3CCN(C#N)C3)c2)cc1` [Example 72, (R)-1-(4-cyanophenyl)-N-((1-cyanopyrrolidin-3-yl)methyl)-1H-imidazole-4-carboxamide] it was 0.1 to 1 µM.

Another series relates to Unilateral ureteral obstruction (UUO) kidney fibrosis. As to the kind of experiment: Unilateral ureteral obstructive kidney disease model (UUO). The class given is in vivo. The conditions noted are these: UUO, 20 mg/kg IN-1130 QD IP, days 0 to 10. An excerpt:
In this study, adult C57B16 female mice at 7 to 8 weeks of age with average weight of around 18 to 20 g were used. To complete the ureteral obstruction, the abdominal cavity was exposed via a midline incision and the left ureter was ligated at two points with 4-0 silk and dissected. Successful unilateral ureteral obstruction was later confirmed by observation of dilation of the renal pelvis due to hydronephrosis.
At harvest, mice were anesthetised and both kidneys were harvested; the contralateral kidney serves as control for the UUO kidney. The kidneys were dissected along median line into two parts, of which one side was fixed in formaldehyde, for paraffin embedding and the other was snap frozen for protein or RNA isolation.
Formalin fixed tissue were embedded in paraffin blocks and cut into 5 μm sections. All damaged kidneys, 5 contralateral kidneys from each group and 3 sham kidneys were analysed (in total n=80 kidney samples). Picrosirius Red and α-SMA stain was performed to evaluate fibrotic changes and myofibroblast activation. Analysis was performed by a pathology trained technical staff member, without knowledge of the animal group assignment. High magnification images were taken of each slide an analysed for the surface area covered by the stain.
`Cc1cccc(-c2[nH]c(Cc3cccc(C(N)=O)c3)nc2-c2ccc3nccnc3c2)n1` [IN-1130, reference compound]: the In life mortality was found to be 0%.

The subject of a further series is diet-induced NAFLD/NASH. As to the kind of experiment: Diet-induced model of NAFLD/NASH. As to conditions: diet-induced NAFLD/NASH, P.O., 8 weeks; Elafibranor 30 mg/kg QD. The class given is in vivo, mice. How it is done: Mice were fed Amylin-diet (D09100301, Research Diets, US; 40% fat (18% trans-fat), 40% carbohydrate (20% fructose) and 2% cholesterol) for 37 weeks. Liver biopies were harvested and mice were randomization into treatment groups based on liver Colla1 quantification. Three weeks following biopsy surgery, study animals were dosed orally (P.O.) with either; Vehicle (0.5% HPMC/0.5% PVP/0.1% SDS nanosuspension), MT#1 @ 15 mg/kg QD or MT#1 @ […] QD […] or with Elafibranor @ 30 mg/kg QD (positive control) for eight (8) weeks. A control group of age- and sex-matched mice fed lean chow diet ad libitum were also administered vehicle (P.O) over the same 8 (eight) week period. Following the full dosing schedule, mice were sacrificed, whole livers resected and weighed, fixed in paraformaldehyde before being paraffin embedded. H&E stained slides were then prepared and the average % fractional area of lipid vacuoles (steatosis) determined for each section (@ 20×objective) using Visiomorph software (Visophram, Denmark). The average % fractional area was multiplied by the total liver weight to determine the total liver lipid content per animal. Values expressed as mean of n=9-12+SEM. Dunnett's test one-factor linear model. **: P<0.01, ***: P<0.001 compared to DIO-NASH Vehicle.
Summary of fibrosis stage scores of pre- and post-study liver biopsies harvested from the diet-induced NAFLD/NASH study. Fibrosis stage scores are determined by assessment of picosirius red stained liver sections for relative appearance and location of collagen staining, where; 0=No staining, 1=Perisinusoidal or periportal, 2=Perisinusoidal and periportal and […]=Bridging collagen staining observed. For each group of animals with higher (worsening), same or lower (improvement) in score at post-compared to pre-study is indicated by the height of the bar. One-sided Fisher's exact test with Bonferroni correction. No differences at significance level 0.05.
`CSc1ccc(C(=O)/C=C/c2cc(C)c(OC(C)(C)C(=O)O)c(C)c2)cc1` [Elafibranor, reference compound]: the “fibrotic stage scores (picosirius red stained liver sections, post- compared to pre-study biopsy)” value is reported as “Neither MT#1 or Elafibranor (positive control) significantly improved; also recorded: failed to statistically improve” and the liver steatosis entry is listed as “significantly reducing”.

The subject of the next series is Bleomycin-induced lung fibrosis. As to the kind of experiment: Bleomycin-induced lung fibrosis model. As to conditions: 100 mg/kg pirfenidone BID, oral, days 7 to 21, bleomycin 1.5 U/kg.
Procedure: Treatment group animals (n=10/group) received 1.5 U/kg of clinical bleomycin via oropharyngeal route on day 0 under inhalant anaesthesia. Animals were monitored for tolerance of the bleomycin administration procedure and subsequently bodyweights of all mice were recorded at least 3 times per week during the study. […] All treatments were administered orally.
At day 21, lungs were harvested from each animal and weighed, followed by fixation in 10% neutral buffered formalin (NBF) for histopathological analysis. The lung samples were processed and embedded with all lobes from each mouse in one paraffin block. Coronal sections through the four major lobes were stained with Masson's Trichrome. For each animal, consecutive lung fields were examined at 200×magnification in a raster pattern using a 20×objective lens and a 10×ocular lens. […] The Fibrotic Index was calculated as the sum of the modified Ashcroft field scores divided by the number of fields examined.
The compound `Cc1ccc(=O)n(-c2ccccc2)c1` [pirfenidone, reference compound] had an In life mortality of 0%.

As usually defined, the IC50 is the concentration needed to halve the response being measured. Read a low IC50 as higher potency.
